This passage reports melting point results from a melting point compilation (Tetko et al.; mined from patent text by program, amines drawn as free bases though some values may be those of a salt).

The term melting point denotes the temperature of the solid-liquid transition.

On to `Nc1ccccc1OC1CCCC1`, for which the melting point lay within 87 to 87.5 °C.
In turn, `O=C(Nc1ccc(Cl)nc1)c1ccc(-n2ccnc2)c(F)c1` gave a melting point of 210 to 211 °C.
The result for `COc1ccc(-c2n[nH]c3ccc([N+](=O)[O-])cc23)cc1` reads 153 °C; that for `N#Cc1c(N2CCc3ccccc3CC2)nc(C2CC2)n(CC(F)(F)F)c1=O`, 116 to 118 °C; that for `COc1cc(CC(C)=O)c([N+](=O)[O-])cc1Cl`, 114 to 115 °C.
The molecule `C#CCOC(=O)Oc1ccc(Cc2ccc(OC(=O)OCC#C)cc2)cc1` returned a melting point of 60 °C.
In the case of `COc1cc(OC)c2c(c1)OCC(CNCCCOc1cccc(N)c1)O2` (stereo not drawn), the melting point lay in the range of 123 to 128 °C.
`CNC(=O)N1CCc2[nH]cnc2C1c1ccco1` (stereo not drawn) registered a melting point of 205 °C.
With `CCn1c(=O)n(CC(C)(C)O)c(=O)c2[nH]cnc21`, the melting point lay in the range of 217 to 219 °C.
The result for `COc1cccc(C(=O)Nc2nnn[nH]2)c1[N+](=O)[O-]` reads 271 °C.
The result for `CC(=O)N1CCN=C1Nc1cc(C)nn1-c1ccc(Cl)c(Cl)c1` reads 156 to 157 °C; that for `CCc1cc(SCc2cccc3sc(-c4ccc(C(F)(F)F)cc4)nc23)ccc1OCC(=O)O`, 89 to 92 °C.
In turn, `CCOC(=O)C1CN(S(=O)(=O)c2ccc3cc(Br)ccc3c2)CCN1C(=O)C1CCN(c2ccncc2)CC1` (stereo not drawn) yielded a melting point of 117 to 121 °C.
The figure for `CCOC(=O)C1(NC=O)Cc2cccc3c2N(CCC3)C1=O` (stereo not drawn) is 103 to 106 °C; for `CC(C)(C)c1ccc(C(O)CCCN2CCC(=C3c4ccccc4C=Cc4ccccc43)CC2)cc1` (stereo not drawn) it is 141 to 142 °C; for `Cc1cc(C)n(-c2nc(Nc3ccc(Cl)cc3)cnc2CN)n1` it is 173 to 176 °C.
The result for `CC1=CC(=O)C(C)S(=O)(=O)N1C` (stereo not drawn) reads 73 to 75 °C; that for `CCOC(=O)c1sc(Oc2ccc(F)cc2)c2c1CCc1cnn(C)c1-2`, 94 to 95 °C; that for `CCN1c2c(oc(=O)n(-c3ccccn3)c2=O)-c2ccccc2S1(=O)=O`, 268 to 270 °C.
The molecule `Cc1cc(C)cc(NC(=O)CN2CCN(c3ncccc3C#N)CC2)c1` came in with a melting point of 139 to 140 °C.
For `COCCc1c[nH]c(-c2ccc(OCc3ccccc3)cc2)n1`, the melting point is 154 to 156 °C.
The molecule `COCCN(C(=O)c1cnc(N2CC(C)(C)NC2=O)nc1N)c1cccc(C(F)(F)F)c1` gave a melting point of 192 to 193 °C.
For the molecule `Cc1cccc(Cl)c1N1CCCN(C(C)C)C1=S`, the melting point fell in the range of 135 to 136 °C.
Regarding `CC(C)(NCCCn1ccnc1)c1ccc(-c2ccc(O)cc2)cc1`, the melting point lay in the range of 178 to 180 °C.
The molecule `CCSc1cc(C)nc(SCC)c1NC(=O)CCCCSc1nc2cccc(C(F)(F)F)c2o1` came in with a melting point of 155 to 156 °C.
Regarding `CC(C)n1nc(-c2sc(NC(=O)CN3CCCCC3)nc2-c2ccccc2)ccc1=O`, the melting point lay within 189 to 190 °C.
The figure for `c1ccc(-c2ccc3nc(-c4ccccc4)oc3n2)cc1` is 151 to 152 °C; for `Oc1ccc(Cl)cc1-n1c(=S)[nH]c2cc(C(F)(F)F)ccc21` it is 248 to 250 °C.
Molecule `CC(C)(C)OC(=O)NC(=N)NC(=O)c1cccc(P(c2ccccc2)c2ccccc2)c1` yielded a melting point of 79 to 82 °C.
Consider `CCOCCn1c(CN2CCN(Cc3ccccc3)CC2C)nc2cccnc21` (stereo not drawn), for which the melting point worked out at 91.2 °C.
`COC(=O)Cn1c(C(=O)Nc2nc(-c3cc(OC)c(Cl)cc3OC)c(CCC3CCCCC3)s2)cc2cc(C)cc(C)c21` registered a melting point of 193 to 195 °C.
The figure for `CC(C)(Cc1ccccc1)C(NC(=O)c1cccnc1)Nc1c(Nc2cccnc2)c(=O)c1=O` (stereo not drawn) is 220 to 222 °C.
Regarding `O=C(O)CCCOc1cccc(CN2CCCCC2)c1`, the melting point lay in the range of 73 to 77 °C.
The result for `COc1ccc(-c2ccc(C#N)cc2)nc1` reads 93 to 95 °C; that for `CC(C)[C@H](O)[C@@H](CCCCOc1ccc(Cl)cc1Cl)n1nc[nH]c1=S` (racemic), 118 °C.
`Cc1nc2n(c(=O)c1CCN1CCC(C(O)c3ccc(F)cc3)CC1)CCS2` (stereo not drawn): the melting point amounted to 204 °C.
The figure for `O=C(N[C@@H]1CN[C@H]2CCO[C@H]21)C(F)(F)F` (relative stereo) is 106 to 110 °C; for `COC(=O)c1ccc(C(C)O)cc1` (single isomer, unassigned; (+)) it is 52 to 53 °C.
The figure for `CCN(CC)S(=O)(=O)c1nc2ccc([N+](=O)[O-])cc2n1CC` is 90 to 91 °C; for `COc1ccc(Oc2cccnc2)cc1C#CC(C)N(O)C(N)=O` (stereo not drawn) it is 153 to 154 °C; for `COc1ccc(-c2ccc(NC(=O)C=Cc3ccc(CN4CCCC4)cc3)cc2)cc1` it is 199 to 200 °C.
Consider `O=c1c2cc3ncn(CCc4cccc(F)c4)c(=O)c3cc2ncn1CCc1cccc(F)c1`, for which the melting point lay within 250 to 251 °C.
The molecule `NCC(=O)Nc1ccc(Cl)cc1C(=O)c1c(F)cccc1F` registered a melting point of 133 to 135 °C.
For the molecule `OCc1cnoc1-c1cccc(Cl)c1`, the melting point was 80 to 81 °C.
With `CCCC1=NC(=NOC(=O)NC)SC1(C)C`, the melting point lay within 112 to 114 °C.
The result for `Cc1cccc(C(=O)NC(Nc2c(Nc3cccnc3)c(=O)c2=O)C(C)(C)C)c1` (stereo not drawn) reads 236 to 237 °C; that for `CCCOCCOc1ccc(-c2ccc3c(c2)C=C(C(=O)O)CCN3CCCOCC)cc1`, 98 to 100 °C.
The figure for `Cc1cc(C#CC2(O)CN3CCC2CC3)cc(C)c1OCCOc1ccccc1` (stereo not drawn) is 141 to 142 °C; for `CCOC(=O)c1c[nH]c2ccc(C(=O)c3c(C)c(OC)c4ccccn34)cc2c1=O` it is 271 °C.
In turn, `CNC(=O)c1ccccc1C(O)(c1ccc(Cl)cc1)c1ccccc1CN(C)C` (stereo not drawn) yielded a melting point of 154 to 156 °C.
`Cc1ccc(C(=S)CCCCCl)cc1`: the melting point fell in the range of 87 to 89 °C.
The figure for `CCOC(=O)C(C)Oc1ccc(Oc2cnc3cc(Cl)ccc3n2)cc1F` (stereo not drawn) is 110 °C; for `N#Cc1cnc2ccc(NC(=O)C#CCN3CCOCC3)cc2c1Nc1cccc(Br)c1` it is 112 to 115 °C.
The molecule `N#Cc1ccc2c(c1)c(C1CCC3(CC1)OCCO3)cn2Cc1ccccc1` registered a melting point of 129 to 130 °C.
`C#CCc1c(C)nc(N)[nH]c1=O` had a melting point of 245 to 249 °C.
The molecule `CCCN(CCCc1c[nH]c2ccc(F)cc12)C1COc2c(C(N)=O)ccc(F)c2C1` (stereo not drawn) showed a melting point of 123 °C.
For `CCCC[C@H](NC(=O)[C@H](CC(C)C)NC(=O)c1ccccc1C(F)(F)F)C(=O)CSCc1ccco1`, the melting point lay in the range of 102 to 106 °C.
In turn, `N#Cc1ccc2c(c1-c1c(C#N)ccc3c1OCO3)OCO2` came in with a melting point of 213 to 215 °C.
`C=CC(=O)NC(=O)CC(C)=O` gave a melting point of 128 to 130 °C.
`CCc1cnc(N2CCN(C(=O)c3ccccc3NC3(c4ccccc4)NC=Nc4ccccc43)CC2)nc1` (stereo not drawn): the melting point was greater than 250 °C.
On to `C=C(c1ccc(NC(=O)OC(C)(C)C)c(C)c1)C(F)(F)C(F)(F)C(F)(F)F`, for which the melting point was in the range of 50 to 53.5 °C.
As to `CCCCCCCCCCCCCCOc1ccccc1NC(=O)c1cc(Sc2nnnn2-c2cccc(C(=O)O)c2)c2ccccc2c1O`, the melting point lay within 136 to 138 °C.
The result for `CCN(CC)C(=O)[C@@H](C)[C@H]1CC[C@H]2[C@@H]3CCC4=CC(=O)CC[C@]4(C)[C@H]3CC[C@]12C` reads 198 to 199 °C.
As for `CCc1nn2ccccc2c1NC(C)=O`, the melting point is 184 to 188 °C.
For the molecule `NC(=O)NCc1cccc2c1C(=O)N(C1CCC(=O)NC1=O)C2=O` (stereo not drawn), the melting point fell in the range of 292 to 294 °C.
Consider `CCCCC(CNc1ncc(OC)c(C)n1)c1ccccc1` (stereo not drawn), for which the melting point lay in the range of 39 to 40 °C.
In turn, `Cc1ccc(C(C)(C)C)c(Oc2ccc(O)cc2)c1` showed a melting point of 102 °C.
`Nc1c(Br)cc(S(N)(=O)=O)cc1[N+](=O)[O-]` displayed a melting point of 216 to 218 °C.
The figure for `Cc1ccc(S(=O)(=O)NCc2ccc(CCN3CCN(c4ccncc4)CC3)cc2)cc1` is 180 to 182 °C; for `Cc1cc(C)cc(N2C(=O)NC(C)(C3CC3)C2=O)c1` (stereo not drawn) it is 121 °C.
Take `CC(C)(C)OC(=O)CS(=O)(=O)c1cccc(-c2nc(=O)c3ccccc3s2)n1`: the melting point lay in the range of 159 to 160 °C.
The result for `CNC(=O)c1cc(=O)c(-c2ccc(OC)c(OC)c2)co1` reads 213 to 215 °C; that for `COc1ccc(C2(c3ccc(OC)cc3)CCN(CC[C@@H]3C=C4c5cccc6[nH]cc(c56)C[C@H]4N(C)C3)CC2)cc1`, 184 to 187 °C; that for `CC(C)(C)OC(=O)N1CCN(c2ccc([N+](=O)[O-])cc2C#N)CC1`, 141 to 142 °C.
With `Cc1c(N2CCN(C=O)C(C)C2)c(F)cc2c(=O)c(C(=O)O)cn(C3CC3)c12` (stereo not drawn), the melting point fell in the range of 236 to 239 °C.
As for `O=c1cc(S)oc2ccccc12`, the melting point lay in the range of 207 to 208 °C.
Consider `Cc1cc(N)c(C)c(Cl)c1Oc1ccc(C(=O)c2ccc(Cl)cc2)cc1`, for which the melting point was in the range of 113 to 122 °C.
`Cc1ccc(Cl)c(OCC(O)CNCCNC(=O)NCCCO[N+](=O)[O-])c1` (stereo not drawn) gave a melting point of 109 to 111 °C.
With `Cc1ccc(-c2ccc(/C=C/C(=O)O)o2)cc1`, the melting point was 183 to 184 °C.
For the molecule `O=C(NOCCO)c1ccc(F)cc1Nc1ccc(I)cc1F`, the melting point lay in the range of 117 to 119 °C.
Consider `Nc1ncnc2cc(-c3ccc(C(F)(F)F)cc3)sc12`, for which the melting point lay in the range of 181 to 194 °C.
For the molecule `Cc1nccn1-c1ccc(-c2cnc([C@H](Cc3ccccn3)N(C=O)c3cc4ccccc4o3)n2C)cc1`, the melting point lay in the range of 167 to 171 °C.
With `CC1c2ccccc2-c2ccccc2N1S(=O)(=O)c1ccc(O)c(CO)c1` (stereo not drawn), the melting point was 182 to 184 °C.
Consider `OC(COc1ccccc1-c1cc[nH]n1)CN1CCN(c2ccc(Cl)cc2)CC1` (stereo not drawn), for which the melting point was in the range of 120 to 121 °C.
For the molecule `CC(OC(C)c1ccc(-c2ccc(Cl)cc2)cc1)C(=O)O` (stereo not drawn), the melting point was in the range of 144 to 146 °C.
`CC(C)CCNC(=O)c1cc2c(Nc3cccc(Cl)c3)ncnc2[nH]1`: the melting point lay in the range of 304 to 306 °C.
Take `CCCc1ccc(C2c3c(C)cc(C)c(C)c3OC2(C)C)cc1` (stereo not drawn): the melting point lay in the range of 69 to 70 °C.
In turn, `Cc1nc2ccccc2c(NCC(O)CO)c1Br` (stereo not drawn) gave a melting point of 140 to 141 °C.
